Common to all, as to format: in vivo
For test [1], the system named is angiogenesis. The test can be described thus: Rat sponge model, hemoglobin content of sponge (Experimental Example 1). The procedure:
(§1) As the promoter of the present invention, the AS-containing lipid emulsion of Example 4 was diluted with a 10% lipid emulsion (Intralipos®, manufactured by the Green Cross Corporation, produced and sold by Yoshitomi Pharmaceutical Industries, Ltd. since April 1, 1998) and used. For the vehicle administration control group, the above-mentioned 10% lipid emulsion alone was used.
(§2) Rats were anesthetized and the dorsal median line was incised for about 1 cm and an air pocket was made subcutaneously at about 2.5 cm toward the tail side with a Kocher clamp. A hemostatic gelatin sponge (Spongel®, 1.0×1.0×0.5 cm; manufactured by Yamanouchi Pharmaceutical Co., Ltd.) infiltrated with physiological saline was implanted therein to prepare rat sponge models.
The incisive region was sutured, antisepticized and intramulscular injection of an antibiotic was given, after which the rats were returned to the breeding cages. Each preparation was bolus administered via the tail vein once a day from the day of sponge implanting to day 4. After 4 days from the implanting, 8 rats per group were sacrificed. The back was opened, and the surrounding tissue was removed trying not to damage the implanted sponge and the surface of the sponge was photographed. All the sponges were taken out and a 0.1M aqueous ammonia (2 ml) was added. The sponges were stood for 4 hr to extract hemoglobin in the sponge. Hemoglobin in the extract (100 μl) was quantitated using an assay kit (hemoglobin B-TESTWAKO; manufactured by Wako Pure Chemical Industries, Ltd.). The amount of the hemoglobin in the sponge was calculated and used as the index of angiogenesis.
For the evaluation of the angiogenic effect, a multiple comparison test by Dunnett method was performed to examine significant difference, using the vehicle administration group as a control. The significance was ascribed at less than 5% risk rate.

The subject of test [2] is angiogenesis by b-FGF. Kind of test: Rat sponge model with b-FGF, hemoglobin content of sponge (Experimental Example 2). To be noted: for Hemoglobin in sponge at 4 days after implanting: mean ± standard error. As to the method: (§3) In the same manner as in Experimental Example 1, as the promoter of the present invention, the AS-containing lipid emulsion of Example 4 was diluted with a 10% lipid emulsion (Intralipos®, manufactured by the Green Cross Corporation, produced and sold by Yoshitomi Pharmaceutical Industries, Ltd. since Apr. 1, 1998) and used. For the vehicle administration control group, the above-mentioned 10% lipid emulsion alone was used.
(§4) Using a hemostatic gelatin sponge infiltrated with physiological saline containing 0.1% BSA (bovine serum albumin) or b-FGF solution (b-FGF 1 mg/ml solution, 100 μl, diluted 10-fold with physiological saline containing 0.1% BSA), and in the same manner as in Experimental Example 1, rat sponge models (6-8 animals per group) were prepared. The vehicle and AS were bolus administered via the tail vein once a day at the volume of 1 ml/kg from the day of sponge implanting to day 4. After 4 days from the implanting, the surface of the sponge was photographed, and the amount of the hemoglobin in the sponge was calculated in the same manner as in Experimental Example 1.
For the evaluation of the angiogenic effect, a multiple comparison test (group 1 versus groups 2, 3) by Dunnett method was performed to examine significant difference, using the vehicle alone administration group (BSA-containing physiological saline in sponge +10% lipid emulsion intravenous injection) as a control. For the evaluation of the relationship between AS and b-FGF, an unpaired t-test (group 2 versus group 3) was performed using the b-FGF alone administration group as a control to examine significant difference. The significance was ascribed at less than 5% risk rate.

The subject of test [3] is angiogenesis by b-FGF. Kind of test: Rat sponge model with b-FGF, observation of photograph of sponge surface (Experimental Example 2). The procedure: as §3, §4
In test [4] the test system is angiogenesis. The test can be described thus: Rat sponge model, observation of photograph of sponge surface (Experimental Example 1). To be noted: AS administration group; after 4 days; visual observation. The procedure:
as §1, §2
The incisive region was sutured, antisepticized and intramulscular injection of an antibiotic was given, after which the rats were returned to the breeding cages. Each preparation was bolus administered via the tail vein once a day from the day of sponge implanting to day 4. After 4 days from the implanting, 8 rats per group were sacrificed. […] Hemoglobin in the extract (100 μl) was quantitated using an assay kit (hemoglobin B-TESTWAKO; manufactured by Wako Pure Chemical Industries, Ltd.). The amount of the hemoglobin in the sponge was calculated and used as the index of angiogenesis.

Regarding `CCCCC[C@H](O)/C=C/[C@@H]1C(CCCCCCC(=O)OCCCC)=C(OC(=O)CCC)C[C@H]1O` [AS, butyl 9-butyryloxy-11α,15S-dihydroxyprosta-8,13E-dien-1-oate], the “Hemoglobin in sponge at 4 days after implanting” value is recorded as 4.4 ± 0.8 mg/sponge in the test on angiogenesis [1] (AS 3 μg/kg i.v. bolus via tail vein once a day to day 4, mean ± standard error, P < 0.05 vs vehicle 1.5 ± 0.9 (Dunnett)) and 20.7 ± 3.1 mg/sponge with angiogenesis by b-FGF [2] (group 3: AS 3 μg/kg i.v. with b-FGF 1 μg/sponge, n 7, P < 0.05 vs b-FGF alone (unpaired t-test)). For the same compound, the “hemoglobin content compared with the vehicle administration group” value with angiogenesis [1] (AS 3 μg/kg i.v. bolus, consecutive, result in words) was “increased the hemoglobin content compared with the vehicle administration group and a significant difference was observed”. Besides, the promotion of angiogenesis entry in the test on angiogenesis [1] (summary of hemoglobin content and photograph observation, Experimental Example 1) was “promoted angiogenesis”. Besides, the “angiogenesis promoting effect by b-FGF” value in the test with angiogenesis by b-FGF [2] (AS and b-FGF co-administered, summary) is reported as “potentiated”. The “hemoglobin content of sponge as compared with the b-FGF alone administration group” value in the test on angiogenesis by b-FGF [2] (AS and b-FGF co-administration group, result in words) is listed as “increased significantly”. Further, the “blood vessels on sponge surface (FIG. 5)” value in the test with angiogenesis by b-FGF [3] (AS and b-FGF co-administration group (group 3)) is reported as “more noticeable formation of a blood vessel network was observed, with larger blood vessel diameters”. Further, the “blood vessels on sponge surface (FIG. 2)” value in the test on angiogenesis [4] is on record as “a noticeable blood vessel network that allows visual observation was found, showing superior angiogenesis”.
“b-FGF: growth factor, basic fibloblast growth factor”: the “hemoglobin content of sponge” value with angiogenesis by b-FGF [2] (b-FGF alone administration group, after 4 days, result in words) was “increased”. For the same compound, the “Hemoglobin in sponge at 4 days after implanting” value in the test with angiogenesis by b-FGF [2] (group 2: b-FGF 1 μg/sponge, 10% lipid emulsion i.v. 1 ml/kg, n 8, vehicle alone 6.5 ± 0.7) amounted to 11.8 ± 0.9 mg/sponge. Also, the “blood vessels on sponge surface (FIG. 4)” value in the test with angiogenesis by b-FGF [3] (b-FGF administration group (group 2)) is “a number of blood vessels were observed on the surface of the sponge, showing formation of a blood vessel network”.
